Reference: ChEMBL document CHEMBL1139137, “Modifications of the GSK3beta substrate sequence to produce substrate-mimetic inhibitors of Akt as potential anti-cancer therapeutics” (Bioorg Med Chem Lett, 2007)
Starred links: 1 amine or outer side, 2 acyl side, 3 side chain; linkers in the order of their positions; H or OH if unused. Non-standard residues stand in square brackets, D forms with d. Residues, ends and D or L forms follow the SMILES beside them. *: point of attachment. NH(2-(1-naphthyl)ethyl) = c1ccc2c(CCN*)cccc2c1; NHCH2CH2(piperidin-1-yl) = C1CCN(CCN*)CC1; X4 = c1ccc(CC2CCN(CCN*)CC2)cc1; X1 = CC(=O)Nc1cccc(OCCCN*)c1; X2 = c1ccc2cc(CCN*)ccc2c1; 4Abz = Nc1ccc(C(=O)O)cc1; X3 = CCCCCc1ccc(CN*)cc1; CO = O=C([*:1])[*:2]; NHBn = c1ccc(CN*)cc1; NHHex = CCCCCCN*

The compounds below were run against RAC-alpha serine/threonine-protein kinase (Homo sapiens, UniProt P31749) (assay: Inhibition of Akt after 1 hr by fluorescence polarization assay).
Sequence of RAC-alpha serine/threonine-protein kinase (P31749 whole entry): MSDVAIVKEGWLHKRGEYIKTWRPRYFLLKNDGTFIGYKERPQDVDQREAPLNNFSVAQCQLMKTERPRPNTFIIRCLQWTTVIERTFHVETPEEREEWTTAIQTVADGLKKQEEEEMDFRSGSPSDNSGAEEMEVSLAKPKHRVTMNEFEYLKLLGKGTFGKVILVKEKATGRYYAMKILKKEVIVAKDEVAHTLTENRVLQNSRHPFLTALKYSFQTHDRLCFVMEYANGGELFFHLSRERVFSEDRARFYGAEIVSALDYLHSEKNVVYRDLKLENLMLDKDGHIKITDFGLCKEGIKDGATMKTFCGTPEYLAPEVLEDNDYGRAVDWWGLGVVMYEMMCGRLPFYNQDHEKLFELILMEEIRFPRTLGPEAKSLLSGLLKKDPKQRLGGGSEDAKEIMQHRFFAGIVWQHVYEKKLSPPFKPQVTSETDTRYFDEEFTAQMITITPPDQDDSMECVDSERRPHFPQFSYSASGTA

Compound	IC50 [µM]
CC(=O)NCC(=O)N[C@@H](CCCNC(=N)N)C(=O)N1CCC[C@H]1C(=O)N[C@@H](CCCNC(=N)N)C(=O)N[C@H](C(=O)N[C@H](C(=O)N[C@H](C(=O)N[C@@H](Cc1ccccc1)C(=O)NCc1ccccc1)C(C)C)[C@@H](C)O)[C@@H](C)O (Ac-GRPRTTVF-NHBn)	239
Ac-GRPRTTVF-OH	445
CC(=O)N[C@@H](CCCNC(=N)N)C(=O)Nc1ccc(C(=O)N[C@H](C(=O)N[C@@H](Cc2ccccc2)C(=O)NCCc2cccc3ccccc23)C(C)C)cc1	89
CCCCCCNC(=O)[C@H](Cc1ccccc1)NC(=O)[C@@H](NC(=O)c1ccc(NC(=O)[C@H](CCCN=C(N)N)NC(=O)[C@@H]2CCCN2C(=O)[C@H](CCCN=C(N)N)NC(=O)CNC(C)=O)cc1)C(C)C (Ac-GRPR[4Abz]VF-NHHex)	52
CC(C)[C@H](NC(=O)c1ccc(NC(=N)N)cc1)C(=O)N[C@@H](Cc1ccccc1)C(=O)NCc1ccccc1	77
CC(C)[C@H](NC(=O)c1ccc(NC(=O)CCCCNC(=N)N)cc1)C(=O)N[C@@H](Cc1ccccc1)C(=O)NCc1ccccc1	193
CC(=O)NCC(=O)N[C@@H](C)C(=O)N1CCC[C@H]1C(=O)N[C@@H](C)C(=O)Nc1ccc(C(=O)N[C@H](C(=O)N[C@@H](Cc2ccccc2)C(=O)NCc2ccccc2)C(C)C)cc1 (Ac-GAPA[4Abz]VF-NHBn)	> 500
Ac-GRPRTTWF-OH	> 500
CC(C)[C@H](NC(=O)c1ccc(N(CC(=O)NCc2ccccc2)C(=O)CCCCNC(=N)N)cc1)C(=O)N[C@@H](Cc1ccccc1)C(=O)NCc1ccccc1	14
CC(=O)NCC(=O)N[C@@H](CCCNC(=N)N)C(=O)N1CCC[C@H]1C(=O)N[C@@H](CCCNC(=N)N)C(=O)Nc1ccc(C(=O)N[C@H](C(=O)N[C@@H](Cc2ccccc2)C(=O)NCCc2cccc3ccccc23)C(C)C)cc1 (Ac-GRPR[4Abz]VF-{NH(2-(1-naphthyl)ethyl)})	62
Ac-GRPRTTCF-OH	241
CC(=O)NCC(=O)N[C@@H](C)C(=O)N1CCC[C@H]1C(=O)N[C@@H](CCCNC(=N)N)C(=O)Nc1ccc(C(=O)N[C@H](C(=O)N[C@@H](Cc2ccccc2)C(=O)NCc2ccccc2)C(C)C)cc1 (Ac-GAPR[4Abz]VF-NHBn)	41
CC(=O)NCC(=O)N[C@@H](CCCNC(=N)N)C(=O)N1CCC[C@H]1C(=O)N[C@@H](CCCNC(=N)N)C(=O)Nc1ccc(C(=O)N[C@H](C(=O)N[C@@H](Cc2ccccc2)C(=O)NCCCOc2cccc(NC(C)=O)c2)C(C)C)cc1 (Ac-GRPR[4Abz]VF-X1)	322
CC(=O)NCC(=O)N[C@@H](CCCNC(=N)N)C(=O)N1CCC[C@H]1C(=O)N[C@@H](CCCNC(=N)N)C(=O)Nc1ccc(C(=O)N[C@H](C(=O)N[C@@H](Cc2ccccc2)C(=O)NCCN2CCCCC2)C(C)C)cc1 (Ac-GRPR[4Abz]VF-{NHCH2CH2(piperidin-1-yl)})	> 500
CC(C)[C@H](NC(=O)c1ccc(NCCNC(=N)N)cc1)C(=O)N[C@@H](Cc1ccccc1)C(=O)NCc1ccccc1	390
CC(C)[C@H](NC(=O)c1ccc(CCN=C(N)N)cc1)C(=O)N[C@@H](Cc1ccccc1)C(=O)NCc1ccccc1	120

Compound	IC50 [µM]
C[C@@H](O)[C@H](NC(=O)[C@H](CCCNC(=N)N)NC(=O)[C@@H]1CCCN1C(=O)[C@H](CCCNC(=N)N)NC(=O)CNC(=O)O)C(=O)N[C@H](C(=O)N[C@@H](CC(N)=O)C(=O)N[C@@H](Cc1ccccc1)C(=O)O)[C@@H](C)O ({CO}-GRPRTTNF-OH)	229
CC(C)[C@H](NC(=O)c1ccc(N(CC(=O)NC(C)(C)C)C(=O)CCCCNC(=N)N)cc1)C(=O)N[C@@H](Cc1ccccc1)C(=O)NCc1ccccc1	58
CC(=O)NCC(=O)N[C@@H](CCCNC(=N)N)C(=O)N1CCC[C@H]1C(=O)N[C@@H](CCCNC(=N)N)C(=O)N[C@@H](C)C(=O)N[C@@H](C)C(=O)N[C@H](C(=O)N[C@@H](Cc1ccccc1)C(=O)NCc1ccccc1)C(C)C (Ac-GRPRAAVF-NHBn)	438
CCCCCc1ccc(CNC(=O)[C@H](Cc2ccccc2)NC(=O)[C@@H](NC(=O)c2ccc(NC(=O)[C@H](CCCN=C(N)N)NC(C)=O)cc2)C(C)C)cc1	104
CC(=O)NCC(=O)N[C@@H](CCCN=C(N)N)C(=O)N1CCC[C@H]1C(=O)N[C@@H](CCCN=C(N)N)C(=O)Nc1ccc(C(=O)N[C@H](C(=O)N[C@@H](Cc2ccccc2)C(=O)NCCc2ccc3ccccc3c2)C(C)C)cc1 (Ac-GRPR[4Abz]VF-X2)	36
Ac-GRPRTTHF-OH	> 500
CC(=O)N[C@@H](CCCN=C(N)N)C(=O)Nc1ccc(C(=O)N[C@H](C(=O)N[C@@H](Cc2ccccc2)C(=O)NCc2ccccc2)C(C)C)cc1 (Ac-R[4Abz]VF-NHBn)	119
Ac-GRPRTTFF-OH	> 500
CC(=O)NCC(=O)N[C@@H](CCCNC(=N)N)C(=O)N1CCC[C@H]1C(=O)N[C@@H](CCCNC(=N)N)C(=O)Nc1ccc(C(=O)N[C@H](C(=O)N[C@@H](Cc2ccccc2)C(=O)NCCN2CCC(Cc3ccccc3)CC2)C(C)C)cc1 (Ac-GRPR[4Abz]VF-X4)	94
Ac-GRPRTTAF-OH	409
CC(=O)NCC(=O)N[C@@H](CCCN=C(N)N)C(=O)N1CCC[C@H]1C(=O)N[C@@H](C)C(=O)Nc1ccc(C(=O)N[C@H](C(=O)N[C@@H](Cc2ccccc2)C(=O)NCc2ccccc2)C(C)C)cc1 (Ac-GRPA[4Abz]VF-NHBn)	79
CCCCCCNC(=O)[C@H](Cc1ccccc1)NC(=O)[C@@H](NC(=O)c1ccc(NC(=O)[C@H](CCCNC(=N)N)NC(C)=O)cc1)C(C)C	163
CCCCCc1ccc(CNC(=O)[C@H](Cc2ccccc2)NC(=O)[C@@H](NC(=O)c2ccc(NC(=O)[C@H](CCCN=C(N)N)NC(=O)[C@@H]3CCCN3C(=O)[C@H](CCCN=C(N)N)NC(=O)CNC(C)=O)cc2)C(C)C)cc1 (Ac-GRPR[4Abz]VF-X3)	96
CC(C)[C@H](NC(=O)c1ccc(CNC(=N)N)cc1)C(=O)N[C@@H](Cc1ccccc1)C(=O)NCc1ccccc1	> 500
CC(=O)N[C@@H](CCCN=C(N)N)C(=O)Nc1ccc(C(=O)N[C@H](C(=O)N[C@@H](Cc2ccccc2)C(=O)NCCc2ccc3ccccc3c2)C(C)C)cc1	51
